Results reported in US20240366612A1, “COMPOUNDS AND METHODS FOR MODULATING NUCLEIC ACID SPLICING” (REMIX THERAPEUTICS INC., priority 2021, published 2024).
Counter-ions that a name gives are not always drawn.

How the values were obtained:
[1] = Cell Titer Glo 2.0 cell viability assay; settings: human, K562 cells
[2] = test system: HiBiT-tagged Target C protein in K562 cells; test: HiBiT protein abundance assay, Target C; format: cell-based, human; settings: HiBiT-modified K562 cells, 24 hours, luminescence
Outline: (§1)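 K562 lines with the endogenous target HiBiT-tagged, seeded in IMDM+1% FBS, got a 10-point 3-fold dilution series (top final 10 μM, DMSO ≤0.25%) for 24 hours at 37° C. Lytic LgBiT luminescence was normalized against unmodified-K562 and DMSO-only controls, and IC50 was interpolated at 50% from a four-parameter logistic fit.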

[3] = test system: HiBiT-tagged MYB protein in K562 cells; test: HiBiT protein abundance assay, MYB; format: cell-based, human; settings: HiBiT-modified K562 cells, 24 hours, luminescence
Outline: as §1

MYB CJ mRNA = test: Gene panel canonical junction qPCR assay, MYB; format: cell-based; settings: Homo sapiens, larger gene panel, read-out: MYB IC50 (decrease in CJ mRNA levels)
Outline: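 A673 or K562 cells treated 24 h with 11-point 3-fold dilutions (top 10 µM, ≤0.25% DMSO) at 37 °C. Canonical exon-junction mRNA measured by probe-based RT-qPCR, normalized to GAPDH, GUSB or PPIA and DMSO (2^−ΔΔCt), converted to percent response over a fixed ΔCt window; IC50 from 4-parameter fit.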

[4] = test system: HiBiT-tagged HTT protein in K562 cells; test: HiBiT protein abundance assay, HTT; format: cell-based, human; settings: HiBiT-modified K562 cells, 24 hours, luminescence
Outline: as §1

| SMILES | IC50 [2] [nM] | IC50 [3] [nM] | IC50 (MYB CJ mRNA) [nM] | IC50 [4] [nM] | GI50 at 72 h [1] [nM] |
| --- | --- | --- | --- | --- | --- |
| Cc1cc(-c2nc3ncn(C4CCNCC4)c(=O)c3s2)cc2cn(C)nc12 [Compound 233, 2-(2,7-dimethyl-2H-indazol-5-yl)-6-(piperidin-4-yl)thiazolo[4,5-d]pyrimidin-7(6H)-one] | < 100 | < 100 | 100 to 1000 | < 100 | 100 to 1000 |
| Cc1cn2cc(-c3cc4ncn(C5CCNCC5)c(=O)c4s3)cc(F)c2n1 [Compound 235, 6-(8-fluoro-2-methylimidazo[1,2-a]pyridin-6-yl)-3-(piperidin-4-yl)thieno[3,2-d]pyrimidin-4(3H)-one] | 100 to 1000 | 100 to 1000 | 100 to 1000 | 100 to 1000 | 100 to 1000 |
| Cc1cn2cc(-c3nc4sc(C5CCNCC5)cc4c(=O)[nH]3)cc(F)c2n1 [Compound 250, 2-(8-fluoro-2-methylimidazo[1,2-a]pyridin-6-yl)-6-(piperidin-4-yl)thieno[2,3-d]pyrimidin-4(3H)-one] | 100 to 1000 | 100 to 1000 | 100 to 1000 | 100 to 1000 | 100 to 1000 |
| Cc1nc(-c2nc3ncn(C4CCNCC4)c(=O)c3s2)cc2cn(C)nc12 [Compound 251, 2-(2,7-dimethyl-2H-pyrazolo[3,4-c]pyridin-5-yl)-6-(piperidin-4-yl)thiazolo[4,5-d]pyrimidin-7(6H)-one] | > 10000 | 1000 to 10000 | 1000 to 10000 | 1000 to 10000 | 1000 to 10000 |
| Cn1cc2cc(-c3nc4ncn(C5CCNCC5)c(=O)c4s3)c(O)cc2n1 [Compound 253, 2-(6-hydroxy-2-methyl-2H-indazol-5-yl)-6-(piperidin-4-yl)thiazolo[4,5-d]pyrimidin-7(6H)-one, hydrochloride] | 1000 to 10000 | 1000 to 10000 | 1000 to 10000 | 1000 to 10000 | > 10000 |
| Cc1cn2cc(-c3nc4sc(C5CCN(C)CC5)cc4c(=O)[nH]3)cc(F)c2n1 [Compound 256, 2-(8-fluoro-2-methylimidazo[1,2-a]pyridin-6-yl)-6-(1-methylpiperidin-4-yl)thieno[2,3-d]pyrimidin-4(3H)-one] | > 10000 | > 10000 | > 10000 | > 10000 | > 10000 |
| Cn1cc2cc(-c3cc4ncn(C5CCNCC5)c(=O)c4s3)cc(F)c2n1 [Compound 257] | 1000 to 10000 | 1000 to 10000 | 1000 to 10000 | 1000 to 10000 | 1000 to 10000 |
| Cn1cc2cc(-c3cc4ncn(C5CCNCC5)c(=O)c4s3)c(F)cc2n1 [Compound 258] | 1000 to 10000 | 100 to 1000 | 100 to 1000 | 100 to 1000 | 1000 to 10000 |
| Cn1cc2cc(-c3cc4ncn(C5CCNCC5)c(=O)c4s3)cc(C#N)c2n1 [Compound 259] | 1000 to 10000 | 100 to 1000 | 100 to 1000 | 100 to 1000 | 1000 to 10000 |
| COc1cc(-c2cc3ncn(C4CCNCC4)c(=O)c3s2)cnn1 [Compound 260] | 1000 to 10000 | 1000 to 10000 | 1000 to 10000 | 1000 to 10000 | 1000 to 10000 |
| COc1cc(-c2cc3ncn(C4CCNCC4)c(=O)c3s2)ccn1 [Compound 263] | 1000 to 10000 | 1000 to 10000 | 1000 to 10000 | 1000 to 10000 | 1000 to 10000 |
| Cc1cn2nc(-c3nc4sc(N5CCNCC5)nc4c(=O)[nH]3)cc2c(C)n1 [Compound 267] | 100 to 1000 | 100 to 1000 | 100 to 1000 | 100 to 1000 | 100 to 1000 |
| Cc1cn2nc(-c3nc4sc(N5CCN(C)CC5)nc4c(=O)[nH]3)cc2c(C)n1 [Compound 268] | > 10000 | > 10000 | > 10000 | > 10000 | > 10000 |
| Cc1cn2cc(-c3cc4ncn(N5CCNCC5)c(=O)c4s3)cc(F)c2n1 [Compound 269, 6-{8-fluoro-2-methylimidazo[1,2-a]pyridin-6-yl}-3-(piperazin-1-yl)thieno[3,2-d]pyrimidin-4-one] | 100 to 1000 | 100 to 1000 | 100 to 1000 | 100 to 1000 | 100 to 1000 |
| Cc1cn2cc(-c3cc4ncn(C5CCNC5)c(=O)c4s3)cc(F)c2n1 (centres unmarked) [Compound 270, 6-{8-fluoro-2-methylimidazo[1,2-a]pyridin-6-yl}-3-(pyrrolidin-3-yl)thieno[3,2-d]pyrimidin-4-one] | 100 to 1000 | 100 to 1000 | 100 to 1000 | 100 to 1000 | 100 to 1000 |

Now from value to molecule, other results behind:

| IC50 [2] [nM] | IC50 [3] [nM] | IC50 (MYB CJ mRNA) [nM] | IC50 [4] [nM] | SMILES | GI50 at 72 h [1] [nM] |
| --- | --- | --- | --- | --- | --- |
| 100 to 1000 | < 100 | 100 to 1000 | 100 to 1000 | Cc1cc(-c2nc3ncn(C4CCN(C)CC4)c(=O)c3s2)cc2cn(C)nc12 [Compound 234, 2-(2,7-dimethyl-2H-indazol-5-yl)-6-(1-methylpiperidin-4-yl)thiazolo[4,5-d]pyrimidin-7(6H)-one] | 100 to 1000 |
| 100 to 1000 | < 100 | 100 to 1000 | < 100 | Cc1cc(-c2cc3ncn(C4CCNCC4)c(=O)c3s2)cc2cn(C)nc12 [Compound 236, 6-(2,7-dimethyl-2H-indazol-5-yl)-3-(piperidin-4-yl)thieno[3,2-d]pyrimidin-4(3H)-one] | 100 to 1000 |
| 100 to 1000 | < 100 | 100 to 1000 | 100 to 1000 | Cc1cc(-c2cc3ncn(C4CCN(C)CC4)c(=O)c3s2)cc2cn(C)nc12 [Compound 237, 6-(2,7-dimethyl-2H-indazol-5-yl)-3-(1-methylpiperidin-4-yl)thieno[3,2-d]pyrimidin-4(3H)-one] | 100 to 1000 |
| 1000 to 10000 | 100 to 1000 | 100 to 1000 | 100 to 1000 | Cc1cn2nc(-c3cc4ncn(C5CCNCC5)c(=O)c4s3)cc(C)c2n1 [Compound 238, 6-(2,8-dimethylimidazo[1,2-b]pyridazin-6-yl)-3-(piperidin-4-yl)thieno[3,2-d]pyrimidin-4(3H)-one] | 1000 to 10000 |
| > 10000 | 1000 to 10000 | 1000 to 10000 | 1000 to 10000 | Cc1cn2nc(-c3cc4ncn(C5CCN(C)CC5)c(=O)c4s3)cc(C)c2n1 [Compound 239, 6-(2,8-dimethylimidazo[1,2-b]pyridazin-6-yl)-3-(1-methylpiperidin-4-yl)thieno[3,2-d]pyrimidin-4(3H)-one] | 1000 to 10000 |
| 1000 to 10000 | 100 to 1000 | 100 to 1000 | 100 to 1000 | Cc1cn2cc(-c3cc4ncn(C5CCNCC5)c(=O)c4s3)cc(C)c2n1 [Compound 261] | 1000 to 10000 |
| 100 to 1000 | 100 to 1000 | 100 to 1000 | 100 to 1000 | Cc1cn2nc(-c3cc4ncn(C5CCNCC5)c(=O)c4s3)cc2c(C)n1 [Compound 262] | 100 to 1000 |
| 1000 to 10000 | 1000 to 10000 | 1000 to 10000 | 1000 to 10000 | Cc1cn2cc(-c3cc4ncn(C5CCNCC5)c(=O)c4s3)ncc2n1 [Compound 264] | 1000 to 10000 |
| 100 to 1000 | 100 to 1000 | 100 to 1000 | 100 to 1000 | Cc1cn2cc(-c3cc4ncn(C5CCN(C)CC5)c(=O)c4s3)cc(F)c2n1 [Compound 265, 6-{8-fluoro-2-methylimidazo[1,2-a]pyridin-6-yl}-3-(1-methylpiperidin-4-yl)thieno[3,2-d]pyrimidin-4-one] | 100 to 1000 |
| 1000 to 10000 | 1000 to 10000 | 100 to 1000 | 1000 to 10000 | Cc1nc(-c2cc3ncn(C4CCNCC4)c(=O)c3s2)cc2cn(C)nc12 [Compound 271] | 1000 to 10000 |
